Measured values as given in patent US20260062426A1, “CYCLIN DEPENDENT KINASE DEGRADERS AND METHODS OF USE THEREOF” (Differentiated Therapeutics Inc, priority 2023, published 2026).

Columns and labels:
Assay type in all cases: cell-based
CDK2 = biological target: T1, CDK2 (Homo sapiens, UniProt P24941); assay: CDK2 HIBIT PQ (protein quantification), degradation; details: for CDK2 HIBIT PQ Max (%): Max = Maximum; for DC50: PQ = Protein Quantification
T1 construct: host or cells: HEK293
Summary of the method: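 HEK293 cells bearing HiBiT-tagged CDK2 were cultured in DMEM containing 10% FBS, plated in 384-well plates at 1.6×10^5 cells/well in 50 uL, and kept overnight at 37° C and 5% CO2. Following 6 hours of compound exposure, each well received 20 μL of HiBiT reagent (Nano-Glo HiBiT lytic buffer, lytic substrate, LgBiT protein), and plates were shaken for 20 minutes at room temperature and then read on an EnVision, with 0.1% DMSO as the high control and medium only as the low control. DC50 and maximal degradation were calculated from these readings.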

CCNE1 = biological target: T2, CCNE1 (Homo sapiens, UniProt P24864+P24941); assay: CCNE1 HIBIT PQ (protein quantification), degradation; details: for CCNE1 HIBIT PQ Max (%): Max = Maximum; for DC50: PQ = Protein Quantification
T2 construct: host or cells: HEK293
Summary of the method: (§1)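 HEK293 cells carrying HiBiT-tagged CCNE1 were grown in EMEM with 10% FBS and seeded in 384-well plates at 1.6×10⁵ cells/well in 50 uL, then incubated overnight at 37° C and 5% CO₂. Compound treatment lasted 6 hours, and CCNE1 protein was then measured with a HiBiT assay. High control was 0.1% DMSO-treated cells and low control was culture medium only. Maximal degradation and DC50 were derived from these readings.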

CDK9 = biological target: T3, CDK9 (Homo sapiens, UniProt P50750); assay: CDK9 HIBIT PQ (protein quantification), degradation; details: for DC50: PQ = Protein Quantification
T3 construct: host or cells: HEK293
T3 sequence (P50750 whole entry): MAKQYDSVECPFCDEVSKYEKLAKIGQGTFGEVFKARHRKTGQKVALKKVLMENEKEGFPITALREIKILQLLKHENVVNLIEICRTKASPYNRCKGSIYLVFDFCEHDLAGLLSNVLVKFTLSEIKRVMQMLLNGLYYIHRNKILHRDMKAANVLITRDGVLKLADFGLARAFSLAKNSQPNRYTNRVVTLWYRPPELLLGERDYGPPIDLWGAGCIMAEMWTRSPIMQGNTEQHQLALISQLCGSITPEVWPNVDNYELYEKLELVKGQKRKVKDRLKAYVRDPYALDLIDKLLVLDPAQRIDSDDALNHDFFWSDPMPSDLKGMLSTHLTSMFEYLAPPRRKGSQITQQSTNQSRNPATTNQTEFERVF
Summary of the method: as §1, with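 “CDK9” for “CCNE1”, “DMEM” for “EMEM”, “1.6×10^5” for “1.6×10⁵”, “CO2. After compound treatment, CDK9” for “CO₂. Compound treatment lasted 6 hours, and CCNE1”, “was” for “was then”, “degradation, Dmax” for “degradation”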

Row | Structure (SMILES) | CDK2 HIBIT PQ Max (%) (CDK2) | DC50 (CDK2) [nM] | CCNE1 HIBIT PQ Max (%) (CCNE1) | Dmax (CDK9; Max = Maximum) [%] | DC50 (CCNE1) [nM] | DC50 (CDK9) [nM] | CDK9 HIBIT PQ Max (%) (CDK9; Max = Maximum)
1 | CC(C)Oc1c(-c2cn[nH]c2)ncn2nc(Nc3ccc(S(=O)(=O)N4CCC[C@H](CN5CC[C@H](c6ccc7c(N8CCC(=O)NC8=O)nn(C)c7c6)CC5(C)C)C4)cc3F)nc12 (relative stereo) [Compound 97, rel-1-(6-((R)-1-(((S)-1-((3-fluoro-4-((8-isopropoxy-7-(1H-pyrazol-4-yl)-[1,2,4]triazolo[1,5-c]pyrimidin-2-yl)amino)phenyl)sulfonyl)piperidin-3-yl)methyl)-2,2-dimethylpiperidin-4-yl)-1-methyl-1H-indazol-3-yl)dihydropyrimidine-2,4(1H,3H)-dione] | 68 | 0.6 | 41 | 19 |  |  | 
2 | CC(C)Oc1c(-c2cn[nH]c2)ncn2nc(NC3CCN(S(=O)(=O)c4cccc(CN5CC(c6ccc7c(c6)CN(C6CCC(=O)NC6=O)C7=O)C5)c4)CC3)nc12 (racemic) [Compound 4] | 63 | 4.14 | 65 | 4 | 7.1 |  | 
3 | CC(C)Oc1c(-c2cn[nH]c2)ncn2nc(Nc3ccc(S(=O)(=O)c4cccc(CN5CCC(c6ccc7c(N8CCC(=O)NC8=O)nn(C)c7c6)CC5)c4)cc3F)nc12 [Compound 8, 1-(6-(1-(3-((3-fluoro-4-((8-isopropoxy-7-(1H-pyrazol-4-yl)-[1,2,4]triazolo[1,5-c]pyrimidin-2-yl)amino)phenyl)sulfonyl)benzyl)piperidin-4-yl)-1-methyl-1H-indazol-3-yl)dihydropyrimidine-2,4(1H,3H)-dione] | 92 | 1.58 | 81 | 91 | 7.36 | 10.2 | 
4 | CC(C)Oc1c(-c2cn[nH]c2)ncn2nc(Nc3ccc(S(=O)(=O)c4cccc(N5CCCC6C5CN6c5ccc6c(c5)CN(C5CCC(=O)NC5=O)C6=O)c4)cc3F)nc12 (centres unmarked) [Compound 35] | 79 | 6.5 | 25 | 17 |  |  | 
5 | CC(C)Oc1c(-c2cn[nH]c2)ncn2nc(Nc3ccc(S(=O)(=O)N4CC5(CCCN(CC6CCN(c7cccc8c7n(C)c(=O)n8C7CCC(=O)NC7=O)CC6)C5)C4)cc3F)nc12 (racemic) [Compound 76] | 87 | 5.8 | 40 | 46 |  |  | 
6 | CC(C)Oc1c(-c2cn[nH]c2)ncn2nc(Nc3ccc(S(=O)(=O)c4cccc(CN5CCN(c6ccc7c(N8CCC(=O)NC8=O)nn(C)c7c6)CC5)c4)cc3F)nc12 [Compound 38] | 96 | 2.3 | 55 | 63 | 5.76 | 24 | 
7 | CC(C)Oc1c(-c2cn[nH]c2)ncn2nc(Nc3ccc(S(=O)(=O)c4cccc(CN5CCN(c6ccc7c(N8CCC(=O)NC8=O)nn(C)c7c6)C(C)C5)c4)cc3F)nc12 (racemic) [Compound 41] | 94 | 3.9 | 41 | 57 |  | 28 | 
8 | CC(C)Oc1c(-c2cn[nH]c2)ncn2nc(Nc3ccc(S(=O)(=O)c4cccc(C[C@H]5C[C@H](c6ccc7c(c6)CN(C6CCC(=O)NC6=O)C7=O)C5)c4)cc3F)nc12 (some centres unmarked) [Compound 30] | 96 | 7.2 | 79 | 54 | 29.5 | 147 | 
9 | CC(C)Oc1c(-c2cn[nH]c2)ncn2nc(Nc3ccc(S(=O)(=O)c4cccc(OC5CN(C6CCN(c7ccc8c(c7)CN(C7CCC(=O)NC7=O)C8=O)CC6)C5)c4)cc3F)nc12 (racemic) [Compound 23] | 87 | 1.1 | 42 | 61 |  | 10.6 | 
10 | CC(C)Oc1c(-c2cn[nH]c2)ncn2nc(NC3CCN(S(=O)(=O)c4cccc(CN5CC6(C5)CN(c5ccc7c(c5)CN(C5CCC(=O)NC5=O)C7=O)C6)c4)CC3)nc12 (racemic) [Compound 2] | 46 |  | 41 | 92 |  | 25.7 | 
11 | CC(C)Oc1c(-c2cn[nH]c2)ncn2nc(Nc3ccc(S(=O)(=O)N(C)CCCN4CC5CC4CN5c4ccc5c(c4)n(C)c(=O)n5C4CCC(=O)NC4=O)cc3F)nc12 (centres unmarked) [Compound 69] | 71 | 0.5 | 18 | 6 |  |  | 
12 | CC(C)Oc1c(-c2cn[nH]c2)ncn2nc(Nc3ccc(S(=O)(=O)c4cccc(CN5CCN(c6ccc7c(N8CCC(=O)NC8=O)nn(C)c7c6)C6CC65)c4)cc3F)nc12 (centres unmarked) [Compound 44] | 92 | 3.5 | 39 | 15 |  |  | 
13 | CC(C)Oc1c(-c2cn[nH]c2)ncn2nc(Nc3ccc(S(=O)(=O)N(C)CCCN4CCC(c5ccc6c(c5)n(C)c(=O)n6C5CCC(=O)NC5=O)CC4)c4cnccc34)nc12 (racemic) [Compound 61] | 86 | 0.3 | 72 | 78 | 1.55 | 3.2 | 
14 | CC(C)Oc1c(-c2cn[nH]c2)ncn2nc(Nc3ccc(S(=O)(=O)N(C)CCCN4CCN(c5ccc6c(c5)n(C)c(=O)n6C5CCC(=O)NC5=O)C[C@H]4C(C)C)cc3F)nc12 (some centres unmarked) [Compound 65] | 85 | 0.2 | 39 | 49 |  |  | 
15 | CCC1CN(c2ccc3c(N4CCC(=O)NC4=O)nn(C)c3c2)CCN1Cc1cccc(S(=O)(=O)N2CC[C@H](Nc3nc4c(OC(C)C)c(-c5cn[nH]c5)ncn4n3)[C@H](C)C2)c1 (some centres unmarked) [Compound 50] | 97 | 2.8 | 90 | 96 | 15.2 | 23.5 | 
16 | CC(C)Oc1c(-c2cn[nH]c2)ncn2nc(Nc3cc(F)c(S(=O)(=O)N(C)CCCN4CCC(c5ccc6c(c5)n(C)c(=O)n6C5CCC(=O)NC5=O)CC4)cc3F)nc12 (racemic) [Compound 60] | 93 |  | 74 | 75 | 0.45 | 1.52 | 
17 | CC(C)Oc1c(-c2cn[nH]c2)ncn2nc(N[C@H]3CCN(S(=O)(=O)c4cccc(CN5CCC(c6ccc7c(N8CCC(=O)NC8=O)nn(C)c7c6)CC5)c4)C[C@H]3C)nc12 [Compound 5] | 92 | 1.67 | 94 | 104 | 3.16 | 3.91 | 
18 | CC(C)Oc1c(-c2cn[nH]c2)ncn2nc(Nc3ccc(S(=O)(=O)N(C)CCCN4CCC(c5cccc6c(N7CCC(=O)NC7=O)nn(C)c56)CC4)cc3F)nc12 [Compound 24] | 94 | 0.6 | 88 | 14 | 3.14 |  | 
19 | CC(C)Oc1c(-c2cn[nH]c2)ncn2nc(Nc3ccc(S(=O)(=O)N4CCCC(CN5CCC(c6ccc7c(N8CCC(=O)NC8=O)nn(C)c7c6)CC5)C4)cc3F)nc12 (single isomer, unassigned) [Compound 95] | 83 | 0.5 | 67 |  | 1.02 | 7.24 | 71
